Measured values from patent US12435044B2, “Pyridazinone herbicides and pyridazinone intermediates used to prepare a herbicide” (FMC Corporation, priority 2018, dated 2025).

Key:
Assay in all cases: Test I pre-/postemergence, mixtures of Cpd. No. 20 with saflufenacil or pyroxasulfone
Format in all cases: in vivo
[1] = tested on: mare's tail (ERICA; Conyza canadensis); details: for Plant response rating (0 to 100 scale): Preemergence, ERICA
Description: (§1) This test evaluated the effect of mixtures of Cpd. No. 20 with saflufenacil or pyroxasulfone on several plant species. Seeds of plant species selected from corn (ZEAMD; Zea mays, cv. ‘Pioneer 1184’), soybean (GLXMA; Glycine max, cv. Pioneer 35T58), giant foxtail (SETFA; Setaria faberi), palmer amaranth (AMAPA; Amaranthus palmeri), common waterhemp (AMATU; Amaranthus rudis), mare's tail (ERICA; Conyza canadensis), and common ragweed (AMBEL; Ambrosia artemisiifolia) were planted in pots containing Tama Silt Loam soil and treated preemergence with a directed soil spray using test chemicals formulated in a non-phytotoxic solvent mixture which included a surfactant.
(§2) At the same time, plants selected from these crop and weed species were planted in pots containing Redi-Earth® planting medium (Scotts Company, 14111 Scottslawn Road, Marysville, Ohio 43041) comprising spaghnum peat moss, vermiculite, wetting agent and starter nutrients and treated postemergence with test chemicals formulated in the same manner. Plants ranged in height from 2 to 10 cm and were in the one- to two-leaf stage for the postemergence treatment. Treated plants and untreated controls were maintained in a greenhouse for approximately 14-21 d, after which time all treated plants were compared to untreated controls and visually evaluated for injury. Plant response ratings, summarized in Tables 11 to 14, are based on a 0 to 100 scale where 0 is no effect and 100 is complete control. A dash (-) response means no test result. Test results are presented as a mean of 4 reps.

[2] = tested on: palmer amaranth (AMAPA; Amaranthus palmeri); details: for Plant response rating (0 to 100 scale): AMAPA
Description: as §1, §2

[3] = tested on: common ragweed (AMBEL; Ambrosia artemisiifolia); details: for Plant response rating (0 to 100 scale): AMBEL
Description: as §1, §2

[4] = tested on: corn (ZEAMD; Zea mays, cv. ‘Pioneer 1184’); details: for Plant response rating (0 to 100 scale): ZEAMD
Description: as §1, §2

[5] = tested on: giant foxtail (SETFA; Setaria faberi); details: for Plant response rating (0 to 100 scale): SETFA
Description: as §1, §2

[6] = tested on: soybean (GLXMA; Glycine max, cv. Pioneer 35T58); details: for Plant response rating (0 to 100 scale): GLXMA
Description: as §1, §2

[7] = tested on: common waterhemp (AMATU; Amaranthus rudis); details: for Plant response rating (0 to 100 scale): AMATU
Description: as §1, §2

[8] = Preemergence, Cpd. No. 20 8 g a.i./ha alone
[9] = preemergence, Cpd. No. 20 16 g a.i./ha alone
[10] = preemergence, Cpd. No. 20 31 g a.i./ha alone
[11] = preemergence, Cpd. No. 20 62 g a.i./ha alone

Cc1ccc2ccc(C)c(-c3c(O)c(Cl)nn(C)c3=O)c2c1 [Cpd. No. 20, 6-chloro-4-(2,7-dimethyl-1-naphthalenyl)-5-hydroxy-2-methyl-3(2H)-pyridazinone]
Plant response rating (0 to 100 scale) ([1]; Cpd. No. 20 8 g a.i./ha alone): 93
Plant response rating (0 to 100 scale) ([1]; Cpd. No. 20 16 g a.i./ha alone): 100
Plant response rating (0 to 100 scale) ([1]; Cpd. No. 20 31 g a.i./ha alone): 100
Plant response rating (0 to 100 scale) ([1]; Cpd. No. 20 62 g a.i./ha alone): 100
ERICA plant response rating, 0 to 100 scale ([1]; postemergence, 8 g a.i./ha): 85
ERICA plant response rating, 0 to 100 scale ([1]; postemergence, 16 g a.i./ha): 86
ERICA plant response rating, 0 to 100 scale ([1]; postemergence, 31 g a.i./ha): 90
ERICA plant response rating, 0 to 100 scale ([1]; postemergence, 62 g a.i./ha): 90
ERICA plant response rating, 0 to 100 scale ([1]; preemergence, 8 g a.i./ha): 93
ERICA plant response rating, 0 to 100 scale ([1]; preemergence, 16 g a.i./ha): 100
ERICA plant response rating, 0 to 100 scale ([1]; preemergence, 31 g a.i./ha): 100
ERICA plant response rating, 0 to 100 scale ([1]; preemergence, 62 g a.i./ha): 100
Plant response rating (0 to 100 scale) [2, 8]: 23
AMAPA plant response rating, 0 to 100 scale ([2]; postemergence, 8 g a.i./ha): 38
AMAPA plant response rating, 0 to 100 scale ([2]; postemergence, 16 g a.i./ha): 40
AMAPA plant response rating, 0 to 100 scale ([2]; postemergence, 31 g a.i./ha): 50
AMAPA plant response rating, 0 to 100 scale ([2]; postemergence, 62 g a.i./ha): 65
AMAPA plant response rating, 0 to 100 scale ([2]; preemergence, 8 g a.i./ha): 23
AMAPA plant response rating, 0 to 100 scale ([2]; preemergence, 16 g a.i./ha): 44
AMAPA plant response rating, 0 to 100 scale ([2]; preemergence, 31 g a.i./ha): 23
AMAPA plant response rating, 0 to 100 scale ([2]; preemergence, 62 g a.i./ha): 61
Plant response rating (0 to 100 scale) [2, 9]: 44
Plant response rating (0 to 100 scale) [2, 10]: 23
Plant response rating (0 to 100 scale) [2, 11]: 61
Plant response rating (0 to 100 scale) [3, 8]: 0
AMBEL plant response rating, 0 to 100 scale ([3]; postemergence, 8 g a.i./ha): 86
AMBEL plant response rating, 0 to 100 scale ([3]; postemergence, 16 g a.i./ha): 90
AMBEL plant response rating, 0 to 100 scale ([3]; postemergence, 31 g a.i./ha): 100
AMBEL plant response rating, 0 to 100 scale ([3]; postemergence, 62 g a.i./ha): 94
AMBEL plant response rating, 0 to 100 scale ([3]; preemergence, 8 g a.i./ha): 0
AMBEL plant response rating, 0 to 100 scale ([3]; preemergence, 16 g a.i./ha): 10
AMBEL plant response rating, 0 to 100 scale ([3]; preemergence, 31 g a.i./ha): 69
AMBEL plant response rating, 0 to 100 scale ([3]; preemergence, 62 g a.i./ha): 98
Plant response rating (0 to 100 scale) [3, 9]: 10
Plant response rating (0 to 100 scale) [3, 10]: 69
Plant response rating (0 to 100 scale) [3, 11]: 98
Plant response rating (0 to 100 scale) [4, 8]: 0
ZEAMD plant response rating, 0 to 100 scale ([4]; postemergence, 8 g a.i./ha): 0
ZEAMD plant response rating, 0 to 100 scale ([4]; postemergence, 16 g a.i./ha): 0
ZEAMD plant response rating, 0 to 100 scale ([4]; postemergence, 31 g a.i./ha): 0
ZEAMD plant response rating, 0 to 100 scale ([4]; postemergence, 62 g a.i./ha): 0
ZEAMD plant response rating, 0 to 100 scale ([4]; preemergence, 8 g a.i./ha): 0
ZEAMD plant response rating, 0 to 100 scale ([4]; preemergence, 16 g a.i./ha): 0
ZEAMD plant response rating, 0 to 100 scale ([4]; preemergence, 31 g a.i./ha): 0
ZEAMD plant response rating, 0 to 100 scale ([4]; preemergence, 62 g a.i./ha): 0
Plant response rating (0 to 100 scale) [4, 9]: 0
Plant response rating (0 to 100 scale) [4, 10]: 0
Plant response rating (0 to 100 scale) [4, 11]: 0
Plant response rating (0 to 100 scale) [5, 8]: 25
SETFA plant response rating, 0 to 100 scale ([5]; postemergence, 8 g a.i./ha): 55
SETFA plant response rating, 0 to 100 scale ([5]; postemergence, 16 g a.i./ha): 80
SETFA plant response rating, 0 to 100 scale ([5]; postemergence, 31 g a.i./ha): 76
SETFA plant response rating, 0 to 100 scale ([5]; postemergence, 62 g a.i./ha): 78
SETFA plant response rating, 0 to 100 scale ([5]; preemergence, 8 g a.i./ha): 25
SETFA plant response rating, 0 to 100 scale ([5]; preemergence, 16 g a.i./ha): 39
SETFA plant response rating, 0 to 100 scale ([5]; preemergence, 31 g a.i./ha): 84
SETFA plant response rating, 0 to 100 scale ([5]; preemergence, 62 g a.i./ha): 99
Plant response rating (0 to 100 scale) [5, 9]: 39
Plant response rating (0 to 100 scale) [5, 10]: 84
Plant response rating (0 to 100 scale) [5, 11]: 99
Plant response rating (0 to 100 scale) [6, 8]: 0
GLXMA plant response rating, 0 to 100 scale ([6]; postemergence, 8 g a.i./ha): 0
GLXMA plant response rating, 0 to 100 scale ([6]; postemergence, 16 g a.i./ha): 0
GLXMA plant response rating, 0 to 100 scale ([6]; postemergence, 31 g a.i./ha): 15
GLXMA plant response rating, 0 to 100 scale ([6]; postemergence, 62 g a.i./ha): 16
GLXMA plant response rating, 0 to 100 scale ([6]; preemergence, 8 g a.i./ha): 0
GLXMA plant response rating, 0 to 100 scale ([6]; preemergence, 16 g a.i./ha): 0
GLXMA plant response rating, 0 to 100 scale ([6]; preemergence, 31 g a.i./ha): 0
GLXMA plant response rating, 0 to 100 scale ([6]; preemergence, 62 g a.i./ha): 0
Plant response rating (0 to 100 scale) [6, 9]: 0
Plant response rating (0 to 100 scale) [6, 10]: 0
Plant response rating (0 to 100 scale) [6, 11]: 0
Plant response rating (0 to 100 scale) [7, 8]: 0
AMATU plant response rating, 0 to 100 scale ([7]; postemergence, 8 g a.i./ha): 50
AMATU plant response rating, 0 to 100 scale ([7]; postemergence, 16 g a.i./ha): 59
AMATU plant response rating, 0 to 100 scale ([7]; postemergence, 31 g a.i./ha): 81
AMATU plant response rating, 0 to 100 scale ([7]; postemergence, 62 g a.i./ha): 83
AMATU plant response rating, 0 to 100 scale ([7]; preemergence, 8 g a.i./ha): 0
AMATU plant response rating, 0 to 100 scale ([7]; preemergence, 16 g a.i./ha): 0
AMATU plant response rating, 0 to 100 scale ([7]; preemergence, 31 g a.i./ha): 0
AMATU plant response rating, 0 to 100 scale ([7]; preemergence, 62 g a.i./ha): 80
Plant response rating (0 to 100 scale) [7, 9]: 0
Plant response rating (0 to 100 scale) [7, 10]: 0
Plant response rating (0 to 100 scale) [7, 11]: 80
